Assay results: US11628179B2, “Compounds for treating and preventing extracellular histone mediated pathologies” (priority 2017, dated 2023)
Several values for one entry are separate records, joined by “and”; a condition that tells them apart may be missing. Equal values may be shown once. Where a name gives a salt, the structure may show the parent alone.

What was measured:
[1] = test system: mice; assay: In-vivo histone toxicity assay, circulating blood cells at 10 min; set-up: species or system mouse; settings: 100 mg/kg i.p. 10 min prior to histones 50 mg/kg i.v.; bled 10 min later
Protocol: In-vivo histone toxicity assays. BALB/c female mice (5˜6 weeks of age), that are more prone to histone-induced anemia and easier to inject i.v. at this young age than C57BL/6 mice, were injected i.p. with test compounds at concentrations indicated 10 min prior to i.v. injection of histones (50 mg kg^−1) in phosphate buffered saline. Retro-orbital bleeds were performed at 10 min after histone injection and collected blood added to acid citrate dextrose (ACD), the 10 min blood sample being subjected to hematologic analyses for platelet and erythrocyte content using an ADVIA 2120i Hematology Analyzer. Spleens were also harvested at 10 min post-histone injection and splenic hemoglobin content quantified using a hemoglobin assay kit (Sigma-Aldrich). In the case of 4 h blood samples, male C57/BL/6 mice (6-8 weeks of age) were injected with test compounds and histones as above and plasma isolated and stored frozen for subsequent biochemical testing, with markers for liver (alanine aminotransferase, ALT), kidney (Creatinine, Crea) and general tissue (lactate dehydrogenase, LDH) damage being determined by the Department of Pathology, The Canberra Hospital.
Accordingly, the inventors in this example investigated the protective effect of mCBS on cells within the blood stream following intravenous injection of histones. […]

[2] = test system: Wistar rats; assay: Rat ischemia reperfusion tissue flap model; type: in vivo; settings: 50 mg/kg i.p., 72 h
Text: Rat ischemia reperfusion tissue flap model. The procedure employed is largely based on a previously described method (Askar, I., Oktay, M. F., Gurlek, A. & Bac, B. Protective effects of some antineoplastic agents on ischemia-reperfusion injury in epigastric island skin flaps. Microsurgery 26, 193-199, doi:10.1002/micr.20193 (2006)). Briefly, male Wistar rats were anaesthetised, locally depilated and a 3 cm by 6 cm fasciocutaneous flap was excised leaving the vascular pedicle intact. […] The clamp was removed […] post-application permitting returned blood flow to the flap. Test compounds (50 mg kg^−1) or saline were administered i.p. 5 min prior to clamp application and 5 min following its removal. The rats were monitored for a total experimental period of 72 h during which rats received additional compound or saline i.p. at 24 and 48 h post-op. The ‘Control No Clamp’ rats had the tissue flap excised and rubber placed underneath prior to re-suturing, however, the vessel was not clamped and they received saline at the same time points as the other rats. At the end of the experimental period the viability of the flaps was determined by the percentage of black necrotic or reddened areas vs pink viable areas. […]

[3] = test system: HMEC-1; assay: Histone-induced calcium flux in endothelial cells; type: cell-based, human; settings: mCBS 100 μg ml−1, histones 100 μg ml−1
Protocol: Calcium flux studies in endothelial cells. HMEC-1 (2×10^7 ml^−1) in RPMI-1640 medium were incubated with Indo-1 AM (5 μM)(ThermoFisher) at 37° C. for 60 min. […] The cell suspension was kept on ice and used within 3 h. Intracellular Ca^2+ flux was monitored using flow cytometry. The cells were pre-equilibrated and maintained at 37° C. during analysis using an external sheath connected to a heated water bath. After the exclusion of cellular debris and clumped cells (on the basis of FSC/SSC light scattering) the basal Ca^2+ level was monitored for 2 min before histone addition in the presence/absence of novel compounds. Ca^2+ levels were measured at 1, 4 and 10 min post-histone addition with a constant flow rate (˜300 events/sec). Ca^2+ flux was determined as an increase in the ratio of geometric mean fluorescence intensity (GMFI) of Ca^2+-bound over Ca^2+-unbound Indo-1.

[4] = test system: Sprague Dawley rats
Protocol: This study examined toxicity from repeat IV administration of mCBS in rats over 7 days with doses up to 1000 mg/kg.
The acute tolerability and toxicity of β-O-methyl cellobioside sulfate was assessed in Sprague Dawley rats following daily intravenous dose administration for a period of seven days. A total of four groups of n=3 adult female rats were treated with 0, 100, 300 and 1000 mg/kg doses of mCBS in the form of the sodium salt (mCBS.Na) in this repeated dose study. […] The rats were then observed for 7 days prior to termination with gross necropsy and terminal haematology and biochemistry analyses. An additional group of n=3 male rats were also treated at the highest dose of 1000 mg/kg according to the same study design.

[5] = Stability of mCBS vs CBS in formulated clinical material (HPLC); type: physicochemical; settings: formulated clinical material in phosphate buffer, 5±3° C., 25±2° C./60% RH, 40±2° C./75% RH
Protocol: Stability studies were carried out at 5±3° C., 25±2° C./60% RH and 40±2° C./75% RH ° C. conditions. Levels of both mCBS and cellobiose sulfate (CBS) were tracked in formulated clinical material (i.e. mCBS in phosphate buffer) via HPLC.

[6] = test system: dog plasma proteins; assay: Plasma protein binding by ultrafiltration, dog plasma; type: in vitro ADME; settings: for Concentration of mCBS, 200 ng/mL Post-filter / Concentration of mCBS, 200 ng/mL Pre-filter / Concentration of mCBS, 2000 ng/mL Post-filter / Concentration of mCBS, 2000 ng/mL Pre-filter: replicates and Mean
Protocol: Protein binding was assessed by an ultrafiltration method using Centrifree® Ultrafiltration Devices with a 30000 dalton molecular weight cut-off point. Briefly, known concentrations of mCBS (as free base) were added to human, rat and dog plasma samples and incubated for 20 min at 37° C. The samples were then subject to ultrafiltration to separate protein bound and unbound drug.
mCBS stock solutions (10 μL) were spiked into solutions of each test matrix (490 μL) as listed below in Table 9 to have a final concentration of 200 ng/mL & 2000 ng/m L.
Spiked samples were then incubated at 37° C. for 20 minutes in a water bath. Aliquots of the samples from each test group (500 μL) were transferred to the ultrafiltration devices (n=3) and centrifuged for 20 minutes at 1000 g. After centrifugation, aliquots of the ultrafiltrates (50 μL) were transferred to separate test tubes for extraction, alongside duplicate aliquots of the samples prior to ultrafiltration from each test group.
For quantification of samples before ultrafiltration, samples were analysed against a freshly prepared standard curve in plasma.

[7] = HPLC analysis of mCBS in buffer formulations after 28 days; type: physicochemical; settings: phosphate or citrate buffer, 25±2° C./60% RH and 40±2° C./75% RH

Question: Which “histone-mediated reductions in circulating leukocytes, platelets, erythrocytes and haemoglobin” value [1] does the source give for `CO[C@@H]1O[C@H](COS(=O)(=O)O)[C@@H](O[C@@H]2O[C@H](COS(=O)(=O)O)[C@@H](OS(=O)(=O)O)[C@H](OS(=O)(=O)O)[C@H]2OS(=O)(=O)O)[C@H](OS(=O)(=O)O)[C@H]1OS(=O)(=O)O` [mCBS, β-O-methyl cellobioside sulfate] here?
Answer: The value was “significantly inhibited if not completely abolished”.

Question: And the “viable area of the skin flap” value [2]?
Answer: Its value is “consistently and significantly increased the viable area of the skin flap”.

Question: And the “histone-induced Ca2+ flux” value [3]?
Answer: Its value is “substantially inhibited the response”.

Question: What about the tolerability ([4]; daily IV bolus 100, 300 and 1000 mg/kg for 7 days) of the same compound?
Answer: Its tolerability is “well tolerated at all dose levels”.

Question: And the “MTD, as free base” value ([4]; daily IV bolus for 7 days, corrected for purity and sodium content)?
Answer: The value was 815 mg/kg.

Question: And the MTD ([4]; daily IV bolus for 7 days, dose as sodium salt form)?
Answer: The MTD was 1000 mg/kg.

Question: And the “Hematology and biochemistry parameters” value ([4]; daily IV bolus up to 1000 mg/kg for 7 days)?
Answer: The value was “unremarkable”.

Question: What about the “level relative to starting amount (T=0) over time” value [5] of the same compound?
Answer: The value was “very stable”.

Question: And the Plasma protein binding ([6]; 200 ng/mL)?
Answer: The Plasma protein binding was 19.6%.

Question: And the Plasma protein binding ([6]; 2000 ng/mL)?
Answer: The Plasma protein binding was 21.0%.

Question: What about the “Concentration of mCBS, 200 ng/mL Post-filter” value [6] of the same compound?
Answer: Its value is 194 ng/mL and 169 ng/mL and 186 ng/mL.

Question: And the “Concentration of mCBS, 200 ng/mL Pre-filter” value [6]?
Answer: Its value is 230 ng/mL and 225 ng/mL.

Question: What about the “Concentration of mCBS, 2000 ng/mL Post-filter” value [6] of the same compound?
Answer: The value was 1970 ng/mL and 1840 ng/mL and 1900 ng/mL.

Question: And the “Concentration of mCBS, 2000 ng/mL Pre-filter” value [6]?
Answer: Its value is 2490 ng/mL and 2330 ng/mL.

Question: What about the “Concentration of mCBS, 200 ng/mL Post-filter” value ([6]; mean) of the same compound?
Answer: The value was 183 ng/mL.

Question: What about the “Concentration of mCBS, 200 ng/mL Pre-filter” value ([6]; mean) of the same compound?
Answer: Its value is 228 ng/mL.

Question: And the “Concentration of mCBS, 2000 ng/mL Post-filter” value ([6]; mean)?
Answer: Its value is 1903 ng/mL.

Question: And the “Concentration of mCBS, 2000 ng/mL Pre-filter” value ([6]; mean)?
Answer: Its value is 2410 ng/mL.

Question: And the “variation from nominal after 28 days” value [7]?
Answer: The value was ~2 % of nominal.
